Source: patent US20050215531A1, “Use of edg receptor binding agents in cancer” (priority 2002, published 2005)
Structures can show the parent of a compound that is named as a salt.

What was measured:
tissue factor = test: Clotting assay, tissue factor activity on HUVEC; format: cell-based, human; settings: compound alone or in combinations, 0.5-2 μM, 4 hours
Description: (§1) Human umbilical vein endothelial cells (HUVEC) are cultured at 37° C. and 5% CO2 in medium M199 supplemented with 20% SCS (HyClone, Logan, Utah), 1 U/ml heparin, 50 μg/ml ECGS, 2 mM glutamine, 100 U/ml penicillin and 0.1 mg/ml streptomycin. Cells are used for experiments up to passage number 5. Short-starved HUVEC are obtained by starving with 1% SCS-containing M199 for 5 h. Recombinant human VEGF165 is obtained from PromoCell (Heidelberg, Germany). Phospho-specific ERK½, p3B kinase polyclonal antibodies, nonphospho ERK½ antibodies and LumiGLO chemiluminescent reagent are from New England BioLabs (Beverly, Mass.), polyclonal IKB antibodies from Santa Cruz Biotechnology (Santa Cruz, Calif.). Peroxidase-conjugated donkey anti-rabbit immunoglobulin G (IgG) and sheep anti-mouse IgG are purchased from Amersham LIFE SCIENCE (Amersham Place, England). lmmobilon-P transfer membranes are products of Millipore (Bedford, Mass.). S is obtained from Sigma Chemical Co.; S1P is from Biomol. Compound A-phosphate stock solution is prepared by the following protocol. Compound A-phosphate is dissolved in methanol tracing with concentrated HCl (0.5 mg Compound A-phosphate in 500 μl of methanol plus 2 μl of HCl). Solvent from the resulting solution is evaporated under vacuum and the residue obtained is redissolved (variant 1) in 0.1% of defatted BSA solution in sterile deionized water (500 μl) or (variant 2) in 0.5% Triton X-100 in deionized water. The resulting stock solutions (2.5 mM) are sonicated and stored at 4° C.
Cells are seeded in 6-well plates at 80-90% confluency and grown overnight. Cells are scraped from the plates and analyzed for tissue factor activity according to the method as described in Clauss, M., J. Biol. Chem. 271,17629-17634 (1996), Mechtcheriakova, D., Blood 93,3811-3823 (1999). Briefly, after induction for 4 hours with VEGF (1.5 nM), TNF-α (100 U/ml), S (0.5-2 μM), S1P (0.5-2 μM), Compound A (0.5-2 μM), and Compound A-phosphate (0.5-2 μM), cells are washed twice and then scraped in 1 ml clotting buffer (12 mM sodium acetate, 7 mM diethylbarbitate and 130 mM sodium chloride; pH 7.4). 50 μl of resuspended cells are mixed with 50 μl of citrated plasma, and clotting times are determined after recalcfication with 50 μl of 20 mM CaCl2 solution at 37° C. TF-equivalents are determined by using a standard curve obtained from rabbit brain thromboplastin.
An important characteristic feature of both classical inflammatory stimulus TNF-α and the main angiogenic growth factor VEGF on endothellal cells is their potency to upregulate tissue factor. Compound A, Compound A-phosphate, S or S1P are tested whether they also do induce tissue factor on HUVEC. […] The data obtained together indicate that Compound A, Compound A-phosphate, S and S1P mechanistically work distinctly to anglogenic VEGF and inflammatory TNF-α.

HUVEC [1] = test: S1P-mediated HUVEC tube formation assay; format: cell-based, human; settings: treatment alone; branching points in 3 independent fields at 4× magnification
Description: For the tube formation assay, HUVEC from passage 2-8 are used and are never greater than 70% confluent before harvesting. Cells are prepared for the assay by washing with Herpes Balanced Saline Solution (HBSS from Clonetics) and then trypsinizing with Trypsin/EDTA (0.25 mg/ml, from Clonetics). After approximately 90% of the cells have lifted off the plate, an equal volume of Trypsin Neutralizing Solution (TNS from Clonetics) is added and the cells are collected into a conical tube containing at least 10 ml of EBM-2 (Clonetics)+0.1% BSA (Sigma) media Cells are centrifuged at 1000 rpm for 5 minutes and the supematant is removed and replaced with 5 ml of fresh EBM-2+0.1% BSA. Cells are counted using a hemacytometer and the volume of the cell suspension is adjusted to achieve a concentration of 500,000 cells/ml. Conical tubes are prepared with test compounds at 100 nM, and pertussin toxin (PTx) at 10 ng/ml in each, then 1 ml of the cell suspension is added to each tube. Tubes are then incubated for ½ hour at 37° C., 5% CO2. The migration assay is performed using Fluoro-Blok 24-Multiwell insert Plates coated with fibronectin (8 μm pore size, Falcon #351147) instead of the individual inserts in a 24-well plate. Cells and test compounds are prepared and pre-incubated as described above, then 100 μl is added to each approriate well in the Insert Plate. 300 μl of the EBM-2+2% charcoastripped media without S1P is added to the bottoms of the wells marked for no stimulation (−), and 300 μl of the media containing S1P (500 nM) is added to the bottoms of the wells marked for stimulation (+). The plate is then incubated for 4 hours at 37° C., 5% CO2. […]
After incubation, the plate is read on a Cytofluor II at an excitation of 485 nm and emission of 530 nm. The Fluoro-Blok coating in the inserts allows only the cells that have migrated to the bottom to be counted. […]
Tube formation is quantitated by counting the number of branching points (two independent cords connecting) in 3 independent fields at 4× magnification.

HUVEC [2] = test: In vitro angiogenesis (tube formation) assay on Matrigel; format: cell-based, human; settings: for effect on VEGF-triggered tube formation: high concentrations, 2-5 μM
Description: as §1
Morphogenesis of endothelial cells into capillary-like structures on Growth Factor Reduced Matrigel Matrix (BD Bioscience) is performed according to the manufacture procedure. Briefly, HUVEC are trypsinized, resuspended in serum-free Ml 99 medium containing soybean trypsin inhibitor (1 mg/ml, Sigma). After centrifugation cells are resuspended in serum-free medium at a density 0.5×10^5 cells/ml, and cell suspension is seeded in 96-well cell culture plates (Costar, Corning Incorporated) precoated with 50 μl of Matrigel in the absence or presence of various stimuli: VEGF at 1.5 nM, S1P at 0.1-2 μM, S at 0.5-2 μM, Compound A at 0.5-2 μM, and Compound A-phosphate at 0.1-2 μM. Eight hours later, cells on Matrigel are fixed with 3% formaldehyde in PBS and kept at 4° C. Results are quantitated from images made with a Nikon Diaphot microscope equipped with a cooled CCD camera (Kappa GmbH, Gleichen, Germany) by direct counting of branching points on two microscopic fields from each well done in duplicates.
The effect of Compound A and Compound A-phosphate on morphogenic differentiation of endothelial cells is determined using an in vitro angiogenesis assay on Matrigel. Endothelial cell morphogenesis is a complex process that requires cell-extracellular matrix interactions, followed by matrix remodelling, stimulated migration, cell-cell interactions, and perivascular proteolysis. […] This may be interpreted as a possible involvement of EDG-1 (S1P1) receptor-mediated signaling events in Compound A-phosphate-stimulated bioresponses (see e.g. FIG. 3). […] Importantly, high concentrations of S and Compound A (2-5 μM) inhibited VEGF-triggered tube formation.

ERK½ MAP kinases = test: Western blot, activation of ERK½ MAP kinases in HUVEC; format: cell-based, human; settings: endothelial cells, 5 minute to 60 minute treatment
Description: as §1
After various treatments, the cells are washed twice with cold PBS, lysed in 100 μl of Laemmli buffer, scraped and heated for 5 min at 95° C. Total cell lysates are separated by SDS-PAGE and transferred to Immobilon-P membrane. The membrane is blocked for 30 minutes with PBS containing 0.1% Tween-20 and 3% skim milk and incubated for 1 hour at RT with a primary antibody diluted in blocking buffer. The membrane obtained is washed three times for 5 minutes with PBS containing 0.1% Tween-20 and incubated with peroxidase-conjugated secondary antibody for 1 hour at RT. After a washing step, the membrane is incubated for 1 minute with ECL reagent and exposed to film as required. For reprobing with another antibody, the membrane is washed twice in PBS, stripped for 30 min at 55° C. with stripping buffer (62.5 mM Tris-HCL, pH 6.8, 2% SDS, 100 mM 2-mercaptoethanol) and washed three times for 5 minutes with PBS at RT. The membrane is stored wet wrapped in SaranWrap at 4° C. after each immunodetection.
Signal transduction via MAP idnases plays a key role in a variety of endothelial cell functions. Treatment of HUVEC with Compound A-phosphate at 0.5 μM may result in transient activation of ERK½ with a peak of phosphorylation/activation at 10 minutes and returning to baseline by 20 minutes (see e.g. FIG. 5). No activation of p38 kinase and JNK½ by Compound A-phosphate is detectable in HUVEC. […] To estimate the possible role of inflammatory/NFκB-dependent program in Compound A-phosphatestimulated bioresponses of endothelial cells, the membranes are reprobed with anti-IκB antibodies. IκB levels are not affected by Compound A-phosphate treatment.

[3] = tested on: human A375 melanoma cells; test: In vivo antitumor activity, A375 melanoma transplanted into BALB/c-nu/nu mice
Source text: (§2) Antitumor activity is expressed as T/C% (mean increase in tumor volumes of treated animals divided by the mean increase of tumor volumes of control animals multiplied by 100).
Aliquots of cancer cells (1×10^7), e.g. human A375 melanoma cells, are transplanted into BALB/c-nu/nu mice. When the tumors have reached ca. 10×10 mm in size, the animals are assigned randomly to four subgroups and the treatment with a compound of formula I is initiated. Animals are sacrificed after 2 week treatment, at which times tumors and tissues are harvested and prepared for morphological and molecular analysis. The size of the tumors is determined with a caliper.

[4] = tested on: human MDA-MB-435 breast tumors; test: Combination with a VEGF-R protein tyrosin kinase inhibitor, MDA-MB-435 breast tumors in nude mice; format: in vivo; settings: 2 weeks, Compound C HCl 2.5 mg/kg i.v. 5×/week, phthalazine succinate 100 mg/kg p.o. 5×/week, or both
Description: as §2
Nude mice transplanted with human MDA-MB-435 breast tumors are treated for 2 weeks with a VEGF-R protein tyrosin kinase inhibitor, e.g. 1-(4-chloroanilino)-4-(4-pyridylmethyl)phthalazine succinate, at a dose of 100 mg/kg p.o. 5×/week, a S1P receptor agonist, e.g. Compound C (hydrochloride salt), at a dose of 2.5 mg/kg i.v. 5×/week, or a combination of both. Antitumor is expressed as T/C% as indicated above.

[5] = tested on: human A375 melanoma cells; test: Combination with a VEGF-R protein tyrosin kinase inhibitor, A375 melanoma in nude mice; format: in vivo; settings: treated in a similar way (same doses) alone or combined

CCCCCCCCCCCCC/C=C/[C@@H](O)[C@@H](N)COP(=O)(O)O [Compound S1P, sphingosine-1-phosphate, reference compound]
tissue factor activity (tissue factor): none of these compounds alone or in combinations may elevate tissue factor activity | Branching Points (HUVEC [1]): 42 ± 13

CCCCCCCCCCCCC/C=C/[C@@H](O)[C@@H](N)CO [S, sphingosine, reference compound]
tissue factor activity (tissue factor): none of these compounds alone or in combinations may elevate tissue factor activity | effect on the VEGF-induced tube formation (HUVEC [2]; 1 μM): without having an inhibitory effect | effect on the ability of S1P and Compound A-phosphate to induce capillary-like structures (HUVEC [2]; 1 μM): attenuates | potency to induce capillary-like structures (HUVEC [2]; 1 μM, compared with S1P): less potent than S1P | effect on VEGF-triggered tube formation (HUVEC [2]): inhibited | effect on VEGF-triggered tube formation (HUVEC [2]; listed as sphingosine): inhibits | MAP kinase activation (ERK½ MAP kinases): Neither Compound A nor S are able to induce MAP kinase activation

CCCCCCCOc1ccc(CCC(C)(N)CO)cc1 (stereo not shown) [Compound C, 2-amino-4-(4heptyloxyphenyl)-2-methyl-butanol]
tumor growth vs saline control ([3]; hydrochloride salt form, 0.5 to 5 mg/kg, 2 week treatment): slows tumor growth

pertussis toxin [reference compound]
inhibition of Compound A-phosphate- and S1P-stimulated tube formation (HUVEC [2]; PTX 50 ng/ml): practically completely inhibited

CCCCCCCOc1ccc(CCC(C)(N)CO)cc1 (stereo not shown) [Compound C—HCl, 2-amino-4-(4heptyloxyphenyl)-2-methyl-butanol]
T/C% [4]: 66% | final T/C value ([3]; 2.5 mg/kg 5×/week): 30% | T/C% [5]: 35%

Clc1ccc(Nc2nnc(Cc3ccncc3)c3ccccc23)cc1.O=C(O)CCC(=O)O [1-(4-chloroanilino)-4-(4-pyridylmethyl)phthalazine succinate, reference compound]
T/C% [4]: 91% | T/C% [5]: 44%
